Reference: the NIST ThermoML archive (doi:10.1016/j.tca.2015.06.020)
± gives the expanded uncertainty stated by the source.

Conditions: Crystal; DTA

SMILES | Normal melting temperature
COc1ccc([N+](=O)[O-])c(-n2ccnn2)c1[N+](=O)[O-] [1-(3-methoxy-2,6-dinitrophenyl)-1H-1,2,3-triazole] | 168.96 ± 3 °C
COc1c([N+](=O)[O-])cc(Cn2ccnn2)cc1[N+](=O)[O-] [1-(4-methoxy-3,5-dinitrobenzyl)-1H-1,2,3-triazole] | 90.13 ± 3 °C
